Patent US20260250318A1, “COMPOSITIONS AND METHODS FOR CROSSING THE BLOOD BRAIN BARRIER” (VOYAGER THERAPEUTICS, INC., priority 2022, published 2026)

Tested on: brain, spinal cord, and DRG of the NHPs
Assay: NGS fold enrichment of synthetic library (passage 3) in NHPs, first cross-species screen
Format: in vivo, cynomolgus macaques (Macaca fascicularis)
Conditions: synthetic library passage 3, intravenous, RNA NGS, brain of NHPs, relative to wild-type AAV9
Summary of the method: (§1)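 Synthetic capsid library (passage 3) was given intravenously […] to NHPs aged 2-4 years and to BALB/c and C57Bl/6 mice (n=3 each, 6-8 weeks). After about 28 days in vivo, tissue RNA was RT-PCR amplified and NGS-sequenced; values are fold enrichment per variant relative to wild-type AAV9.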

Sequence	Fold enrichment over AAV9 in the brain of NHPs [fold]
GSVFGVPSGQNQQT	1.474
GSGLLHRAQQNQQT	1.569
GVAFIGSSGQNQQT	1.043
GSLLISTSGQNQQT	1.919
GRHLVTASGQNQQT	1.411
GHMKGVTSGQNQQT	1.081
GSLLSAGMGQNQHT	1.856
GSGQVVGLSGNQQT	2.052
GSGSHRDVSQNQQT	2.843
GSGLLYHDQQNQQT	1.565
GSGQNQQVLTTART	1.434
GSGQNQQTVGNPAT	1.008
GSRDGHTVGQNQQT	1.928
GSGHLFQSGQNQQT	1.057
GSGLRQTSQQNQQT	1.537
GSGSQLMSLQNQQT	2.065
GSGQNQQSKQQVLT	1.019
GSSVRSLVGQNQQT	1.004
GSGQNQQLSAKSST	1.809
GSGQNQQTSTGVHS	1.660

Same assay, conditions: synthetic library passage 3, intravenous, RNA NGS, spinal cord of NHPs, relative to wild-type AAV9

Sequence	Fold enrichment over AAV9 in the spinal cord of NHPs [fold]
GSVFGVPSGQNQQT	1.248
GSGLLHRAQQNQQT	0.724
GVAFIGSSGQNQQT	0.000
GSLLISTSGQNQQT	5.763
GRHLVTASGQNQQT	2.885
GHMKGVTSGQNQQT	2.814
GSLLSAGMGQNQHT	6.168
GSGQVVGLSGNQQT	7.212
GSGSHRDVSQNQQT	4.022
GSGLLYHDQQNQQT	2.760
GSGQNQQVLTTART	4.142
GSGQNQQTVGNPAT	3.014
GSRDGHTVGQNQQT	7.089
GSGHLFQSGQNQQT	0.615
GSGLRQTSQQNQQT	2.067
GSGSQLMSLQNQQT	3.559
GSGQNQQSKQQVLT	1.494
GSSVRSLVGQNQQT	3.840
GSGQNQQLSAKSST	1.567
GSGQNQQTSTGVHS	8.271

Same assay, conditions: synthetic library passage 3, intravenous, RNA from brain of NHPs, NGS, relative to wild-type AAV9

Sequence	Fold enrichment over AAV9 in the brain of NHPs [fold]
GSGQRGSLTENQQT	1.337
GSGTHLVSLQNQQT	1.392
GSGQNQGLLSSPQT	1.164
GYTRLETSGQNQQT	1.250
GSGQNQQTSVSQNV	1.281
GRGQHVSVANNQQT	1.152
GSGSSSMSFQNQQT	1.279
GSGQNQQSHLRTNT	1.251
GLHGMTLSGQNQQT	1.226
GSGHPYKAAQNQQT	1.246
GHAGSTGSGQNQQT	1.352
GSEQTRQSGQNQQT	1.321

Same assay, conditions: synthetic library passage 3, intravenous, RNA from spinal cord of NHPs, NGS, relative to wild-type AAV9

Sequence	Fold enrichment over AAV9 in the spinal cord of NHPs [fold]
GSGQRGSLTENQQT	2.482
GSGTHLVSLQNQQT	0.000
GSGQNQGLLSSPQT	0.000
GYTRLETSGQNQQT	1.323
GSGQNQQTSVSQNV	0.750
GRGQHVSVANNQQT	1.896
GSGSSSMSFQNQQT	0.540
GSGQNQQSHLRTNT	4.583
GLHGMTLSGQNQQT	3.552
GSGHPYKAAQNQQT	0.000
GHAGSTGSGQNQQT	2.829
GSEQTRQSGQNQQT	0.514

Tested on: brain
Assay: NGS fold enrichment of synthetic library (passage 3) in BALB/c mice, first cross-species screen
Format: in vivo
Conditions: synthetic library passage 3, intravenous, RNA NGS, brain of BALB/c mice, relative to wild-type AAV9
Summary of the method: as §1

Sequence	Fold enrichment over AAV9 in the brain of Mice (BALB/c) [fold]
GSVFGVPSGQNQQT	0.213
GSGLLHRAQQNQQT	0.646
GVAFIGSSGQNQQT	0.648
GSLLISTSGQNQQT	0.808
GRHLVTASGQNQQT	0.404
GHMKGVTSGQNQQT	0.413
GSLLSAGMGQNQHT	0.342
GSGQVVGLSGNQQT	0.881
GSGSHRDVSQNQQT	0.550
GSGLLYHDQQNQQT	0.107
GSGQNQQVLTTART	0.948
GSGQNQQTVGNPAT	0.395
GSRDGHTVGQNQQT	0.661
GSGHLFQSGQNQQT	0.386
GSGLRQTSQQNQQT	0.705
GSGSQLMSLQNQQT	0.172
GSGQNQQSKQQVLT	1.256
GSSVRSLVGQNQQT	0.608
GSGQNQQLSAKSST	1.115
GSGQNQQTSTGVHS	1.075

Same assay, conditions: synthetic library passage 3, intravenous, RNA from brain of BALB/c mice, NGS, relative to wild-type AAV9

Sequence	Fold enrichment over AAV9 in the brain of Mice (BALB/c) [fold]
GSGQRGSLTENQQT	0.567
GSGTHLVSLQNQQT	1.167
GSGQNQGLLSSPQT	0.417
GYTRLETSGQNQQT	0.297
GSGQNQQTSVSQNV	0.715
GRGQHVSVANNQQT	0.589
GSGSSSMSFQNQQT	0.095
GSGQNQQSHLRTNT	0.718
GLHGMTLSGQNQQT	0.338
GSGHPYKAAQNQQT	0.507
GHAGSTGSGQNQQT	1.233
GSEQTRQSGQNQQT	0.900

Tested on: brain
Assay: NGS fold enrichment of synthetic library (passage 3) in C57Bl/6 mice, first cross-species screen
Format: in vivo
Conditions: synthetic library passage 3, intravenous, RNA NGS, brain of C57Bl/6 mice, relative to wild-type AAV9
Summary of the method: as §1

Sequence	Fold enrichment over AAV9 in the brain of Mice (C57Bl/6) [fold]
GSVFGVPSGQNQQT	0.685
GSGLLHRAQQNQQT	1.583
GVAFIGSSGQNQQT	0.744
GSLLISTSGQNQQT	1.488
GRHLVTASGQNQQT	0.648
GHMKGVTSGQNQQT	0.807
GSLLSAGMGQNQHT	0.589
GSGQVVGLSGNQQT	0.785
GSGSHRDVSQNQQT	0.626
GSGLLYHDQQNQQT	0.405
GSGQNQQVLTTART	1.071
GSGQNQQTVGNPAT	0.856
GSRDGHTVGQNQQT	0.495
GSGHLFQSGQNQQT	0.751
GSGLRQTSQQNQQT	0.978
GSGSQLMSLQNQQT	0.563
GSGQNQQSKQQVLT	1.428
GSSVRSLVGQNQQT	0.412
GSGQNQQLSAKSST	1.224
GSGQNQQTSTGVHS	1.039

Same assay, conditions: synthetic library passage 3, intravenous, RNA from brain of C57Bl/6 mice, NGS, relative to wild-type AAV9

Sequence	Fold enrichment over AAV9 in the brain of Mice (C57Bl/6) [fold]
GSGQRGSLTENQQT	0.300
GSGTHLVSLQNQQT	0.715
GSGQNQGLLSSPQT	0.707
GYTRLETSGQNQQT	0.841
GSGQNQQTSVSQNV	0.788
GRGQHVSVANNQQT	1.032
GSGSSSMSFQNQQT	0.466
GSGQNQQSHLRTNT	1.022
GLHGMTLSGQNQQT	0.470
GSGHPYKAAQNQQT	0.872
GHAGSTGSGQNQQT	1.332
GSEQTRQSGQNQQT	0.734
